Data reported in ChEMBL document CHEMBL1133741, “New anilinophthalazines as potent and orally well absorbed inhibitors of the VEGF receptor tyrosine kinases useful as antagonists of tumor-driven angiogenesis” (J Med Chem, 2000).

Columns and labels:
[1] = (§1) The maximum concentration observed (Cmax) in the blood sample at indicated time point (tmax) at a dose 50 mg/Kg administered orally in mice.; type: ADME, organism-based; design: dose 50 mg/Kg, route oral; details: mouse, in vivo, po
[2] = The maximum time reported (tmax) at an oral dose of 50 mg/Kg in mice; type: ADME, organism-based; details: mouse, in vivo
[3] = molecular target: Vascular endothelial growth factor receptor 1 (Homo sapiens, UniProt P17948); assay: Inhibitory activity against Flt-kinase
[4] = molecular target: Platelet-derived growth factor receptor beta (Homo sapiens, UniProt P09619); assay: Inhibition of PDGF- beta receptor kinase
[5] = molecular target: Mast/stem cell growth factor receptor Kit (Homo sapiens, UniProt P10721); assay: Inhibition of Proto-oncogene tyrosine-kinase c-Kit
[6] = molecular target: T1, Vascular endothelial growth factor receptor 2 (Homo sapiens, UniProt P35968); assay: Inhibitory activity against kinase domain containing receptor (KDR/VEGFR2)
Mus musculus = assay: as §1; type: ADME, organism-based; design: dose 50 mg/Kg, route oral; details: in vivo, po
[7] = molecular target: T1, Vascular endothelial growth factor receptor 2; details: CHO

T1 sequence (P35968 whole entry, the tested form may be a part): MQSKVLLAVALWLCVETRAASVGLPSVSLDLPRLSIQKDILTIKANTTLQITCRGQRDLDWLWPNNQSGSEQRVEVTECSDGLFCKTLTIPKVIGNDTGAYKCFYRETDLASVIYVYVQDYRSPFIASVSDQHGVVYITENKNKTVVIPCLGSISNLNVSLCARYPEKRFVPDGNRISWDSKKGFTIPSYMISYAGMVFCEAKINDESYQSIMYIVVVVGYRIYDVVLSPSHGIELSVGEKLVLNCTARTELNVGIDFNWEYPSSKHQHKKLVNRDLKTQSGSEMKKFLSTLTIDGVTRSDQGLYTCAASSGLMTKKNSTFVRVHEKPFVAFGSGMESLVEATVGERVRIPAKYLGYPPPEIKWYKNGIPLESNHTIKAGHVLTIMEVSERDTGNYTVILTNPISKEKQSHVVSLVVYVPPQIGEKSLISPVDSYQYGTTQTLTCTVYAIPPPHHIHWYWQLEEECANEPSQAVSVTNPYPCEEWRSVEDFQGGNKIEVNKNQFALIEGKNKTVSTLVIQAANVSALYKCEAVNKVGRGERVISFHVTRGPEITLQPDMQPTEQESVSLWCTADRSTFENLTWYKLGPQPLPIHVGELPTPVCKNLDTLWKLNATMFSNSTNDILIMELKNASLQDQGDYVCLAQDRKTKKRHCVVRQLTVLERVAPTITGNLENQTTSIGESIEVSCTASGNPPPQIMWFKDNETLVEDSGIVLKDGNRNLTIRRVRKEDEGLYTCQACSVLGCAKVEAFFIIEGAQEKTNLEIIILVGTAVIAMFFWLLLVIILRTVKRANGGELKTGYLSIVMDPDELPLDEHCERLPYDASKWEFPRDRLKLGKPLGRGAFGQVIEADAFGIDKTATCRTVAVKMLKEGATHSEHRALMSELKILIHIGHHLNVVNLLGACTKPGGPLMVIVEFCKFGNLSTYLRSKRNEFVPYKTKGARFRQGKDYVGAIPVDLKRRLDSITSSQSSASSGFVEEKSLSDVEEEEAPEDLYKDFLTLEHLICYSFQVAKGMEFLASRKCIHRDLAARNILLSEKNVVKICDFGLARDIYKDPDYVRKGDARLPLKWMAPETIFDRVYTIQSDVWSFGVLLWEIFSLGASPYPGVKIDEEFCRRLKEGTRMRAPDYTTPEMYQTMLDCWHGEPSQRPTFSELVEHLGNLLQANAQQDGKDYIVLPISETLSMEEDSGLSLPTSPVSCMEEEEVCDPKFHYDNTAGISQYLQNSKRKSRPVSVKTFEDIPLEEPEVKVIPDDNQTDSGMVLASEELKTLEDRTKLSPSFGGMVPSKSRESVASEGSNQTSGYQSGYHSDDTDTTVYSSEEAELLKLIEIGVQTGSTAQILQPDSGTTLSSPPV
Sequence of Vascular endothelial growth factor receptor 1 (P17948 whole entry): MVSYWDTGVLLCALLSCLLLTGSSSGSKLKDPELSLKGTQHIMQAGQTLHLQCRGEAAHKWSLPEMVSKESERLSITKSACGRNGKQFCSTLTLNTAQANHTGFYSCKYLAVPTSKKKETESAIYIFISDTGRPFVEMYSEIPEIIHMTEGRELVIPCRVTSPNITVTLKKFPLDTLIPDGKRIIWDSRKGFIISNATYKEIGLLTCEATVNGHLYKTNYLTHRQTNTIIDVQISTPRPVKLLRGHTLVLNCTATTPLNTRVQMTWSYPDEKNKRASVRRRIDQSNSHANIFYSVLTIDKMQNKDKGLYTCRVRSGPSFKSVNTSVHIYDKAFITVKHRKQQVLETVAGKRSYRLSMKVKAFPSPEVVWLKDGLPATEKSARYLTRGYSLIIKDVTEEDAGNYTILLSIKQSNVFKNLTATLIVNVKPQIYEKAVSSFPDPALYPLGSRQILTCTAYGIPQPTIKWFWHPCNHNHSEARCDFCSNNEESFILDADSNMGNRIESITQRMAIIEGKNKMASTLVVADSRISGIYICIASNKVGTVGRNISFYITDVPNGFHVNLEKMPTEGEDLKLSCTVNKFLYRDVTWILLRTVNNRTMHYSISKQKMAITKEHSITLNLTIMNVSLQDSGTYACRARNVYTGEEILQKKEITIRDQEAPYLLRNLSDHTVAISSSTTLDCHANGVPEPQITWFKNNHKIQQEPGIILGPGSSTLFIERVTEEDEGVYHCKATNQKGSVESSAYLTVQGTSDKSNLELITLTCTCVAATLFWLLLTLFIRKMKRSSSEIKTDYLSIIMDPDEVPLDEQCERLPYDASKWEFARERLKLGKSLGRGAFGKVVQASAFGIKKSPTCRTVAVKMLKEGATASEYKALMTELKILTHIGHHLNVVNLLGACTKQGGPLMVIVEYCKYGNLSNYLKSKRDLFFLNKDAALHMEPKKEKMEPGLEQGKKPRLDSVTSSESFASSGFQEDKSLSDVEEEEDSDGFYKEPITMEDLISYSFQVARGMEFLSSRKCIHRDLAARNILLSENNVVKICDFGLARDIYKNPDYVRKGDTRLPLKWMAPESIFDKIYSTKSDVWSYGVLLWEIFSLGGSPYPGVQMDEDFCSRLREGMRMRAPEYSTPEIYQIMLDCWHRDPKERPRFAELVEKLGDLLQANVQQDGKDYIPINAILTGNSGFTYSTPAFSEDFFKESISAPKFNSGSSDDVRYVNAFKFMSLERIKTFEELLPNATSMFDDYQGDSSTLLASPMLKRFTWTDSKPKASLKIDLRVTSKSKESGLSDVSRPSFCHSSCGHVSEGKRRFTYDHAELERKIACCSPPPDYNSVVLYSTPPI
Sequence of Mast/stem cell growth factor receptor Kit (P10721 whole entry, the tested form may be a part): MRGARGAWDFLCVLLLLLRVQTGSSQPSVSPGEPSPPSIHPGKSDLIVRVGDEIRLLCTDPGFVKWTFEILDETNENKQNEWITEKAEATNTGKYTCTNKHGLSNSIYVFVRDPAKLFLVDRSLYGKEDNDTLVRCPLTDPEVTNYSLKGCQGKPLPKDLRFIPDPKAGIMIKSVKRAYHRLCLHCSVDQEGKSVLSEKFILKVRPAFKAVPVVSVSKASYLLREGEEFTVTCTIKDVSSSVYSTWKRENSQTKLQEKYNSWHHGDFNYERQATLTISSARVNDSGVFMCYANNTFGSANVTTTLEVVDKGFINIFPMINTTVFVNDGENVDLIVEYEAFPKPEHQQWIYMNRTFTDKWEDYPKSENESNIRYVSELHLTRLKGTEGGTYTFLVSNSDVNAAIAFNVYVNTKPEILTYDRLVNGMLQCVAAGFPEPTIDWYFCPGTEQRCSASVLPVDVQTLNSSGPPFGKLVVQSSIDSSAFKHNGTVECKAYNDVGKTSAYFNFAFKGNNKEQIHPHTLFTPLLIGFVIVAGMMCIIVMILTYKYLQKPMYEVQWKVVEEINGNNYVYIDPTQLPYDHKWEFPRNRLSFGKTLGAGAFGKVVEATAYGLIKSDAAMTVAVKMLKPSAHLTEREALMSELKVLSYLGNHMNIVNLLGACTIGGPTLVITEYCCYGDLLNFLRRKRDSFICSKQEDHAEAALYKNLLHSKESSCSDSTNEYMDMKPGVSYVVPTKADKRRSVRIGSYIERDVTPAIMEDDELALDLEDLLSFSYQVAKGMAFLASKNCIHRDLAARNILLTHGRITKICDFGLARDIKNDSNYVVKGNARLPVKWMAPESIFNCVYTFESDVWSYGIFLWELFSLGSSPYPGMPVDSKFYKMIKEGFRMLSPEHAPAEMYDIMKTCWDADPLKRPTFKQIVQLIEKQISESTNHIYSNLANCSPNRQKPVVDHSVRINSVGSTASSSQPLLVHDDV
Sequence of Platelet-derived growth factor receptor beta (P09619 whole entry): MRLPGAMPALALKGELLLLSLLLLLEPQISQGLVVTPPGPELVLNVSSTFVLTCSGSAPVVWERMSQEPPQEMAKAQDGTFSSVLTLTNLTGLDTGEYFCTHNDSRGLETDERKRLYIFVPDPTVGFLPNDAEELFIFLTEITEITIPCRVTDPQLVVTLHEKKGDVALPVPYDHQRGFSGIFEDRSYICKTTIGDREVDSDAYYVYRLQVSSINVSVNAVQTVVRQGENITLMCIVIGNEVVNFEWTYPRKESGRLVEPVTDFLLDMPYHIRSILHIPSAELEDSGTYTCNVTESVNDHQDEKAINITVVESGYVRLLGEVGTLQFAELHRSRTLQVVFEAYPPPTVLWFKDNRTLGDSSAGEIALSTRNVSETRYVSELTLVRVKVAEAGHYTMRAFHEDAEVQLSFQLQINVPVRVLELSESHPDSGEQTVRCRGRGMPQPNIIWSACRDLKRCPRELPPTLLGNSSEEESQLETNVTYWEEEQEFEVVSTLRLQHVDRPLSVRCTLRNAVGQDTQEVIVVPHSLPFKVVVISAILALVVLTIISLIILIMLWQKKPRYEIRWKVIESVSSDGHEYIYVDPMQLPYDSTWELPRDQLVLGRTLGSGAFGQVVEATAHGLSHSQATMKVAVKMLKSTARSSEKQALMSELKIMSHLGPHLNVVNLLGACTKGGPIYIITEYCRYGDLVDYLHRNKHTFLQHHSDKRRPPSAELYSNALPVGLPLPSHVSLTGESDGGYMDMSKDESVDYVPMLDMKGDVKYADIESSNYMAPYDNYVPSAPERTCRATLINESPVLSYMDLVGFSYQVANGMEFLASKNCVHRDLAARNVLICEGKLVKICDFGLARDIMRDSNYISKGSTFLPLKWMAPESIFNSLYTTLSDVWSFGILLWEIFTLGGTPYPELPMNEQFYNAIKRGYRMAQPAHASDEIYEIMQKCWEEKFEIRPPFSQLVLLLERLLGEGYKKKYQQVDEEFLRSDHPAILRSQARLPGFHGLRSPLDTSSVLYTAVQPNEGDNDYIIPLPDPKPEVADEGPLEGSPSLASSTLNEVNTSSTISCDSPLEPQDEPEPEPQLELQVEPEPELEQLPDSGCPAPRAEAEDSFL

Structure (SMILES)	Cmax [1] [µM]	Tmax [2] [min]	IC50 [3] [nM]	IC50 [4] [nM]	IC50 [5] [nM]	IC50 [6] [nM]	Cmax (Mus musculus) [µM]	ED50 [7] [nM]
COc1cc(Nc2nnc(Cc3ccncc3)c3ccccc23)ccc1Cl	8	30	260	2000	3500			
Clc1ccc(Nc2nnc(Cc3ccncc3)c3c2CCCC3)cc1			3600			> 10000		
Cc1cc(C)c(/C=C2\C(=O)Nc3ccccc32)[nH]1 [SEMAXANIB]		30					0.3	930
Clc1ccc(Nc2nnc(Cc3ccncc3)c3cnccc23)cc1			230			610		
Clc1ccc(Nc2nnc(Cc3ccncc3)c3ccncc23)cc1			470					
Clc1ccc(Oc2nnc(Cc3ccncc3)c3ccccc23)cc1			60			1600		
Clc1ccc(Nc2nnc(Cc3ccncc3)c3ncccc23)cc1			240					
CC(C)(C)c1ccc(Nc2nnc(Cc3ccncc3)c3ccccc23)cc1	25.6	30		2000	1000			
Cc1cccc(Nc2nnc(Cc3ccncc3)c3ccccc23)c1	13	30	40	1000	2500	80		8
CN(c1ccc(Cl)cc1)c1nnc(Cc2ccncc2)c2ccccc12			2300			3500		
CC(c1ccncc1)c1nnc(Nc2ccc(Cl)cc2)c2ccccc12 (centres undefined)			420			210		
Clc1ccc(Nc2nnc(Cc3ccncc3)c3ccccc23)cc1.O=C(O)CCC(=O)O	32	15						
Clc1ccc(Nc2nnc(NCc3ccncc3)c3ccccc23)cc1			2600			4700		
Clc1ccc(Nc2nnc(Cc3ccncc3)c3ccccc23)cc1Cl	9.8	30	70	600	700	30		27
Oc1cccc(Nc2nnc(Cc3ccncc3)c3ccccc23)c1	0.5	30		4000	7900			
Cc1cc(C)cc(Nc2nnc(Cc3ccncc3)c3ccccc23)c1	10	30	150	800	2000	40		10

Structure (SMILES)	Cmax [1] [µM]	Tmax [2] [min]	IC50 [3] [nM]	IC50 [4] [nM]	IC50 [5] [nM]	IC50 [6] [nM]	Cmax (Mus musculus) [µM]	ED50 [7] [nM]
c1ccc(-c2ccc(Nc3nnc(Cc4ccncc4)c4ccccc34)cc2)cc1				1400	1400			
c1ccc(Nc2nnc(Cc3ccncc3)c3ccccc23)cc1				2800	> 10000			
Clc1ccc(Nc2nnc(Cc3ccncn3)c3ccccc23)cc1			760			410		
Cc1cc(Cc2nnc(Nc3ccc(Cl)cc3)c3ccccc23)ccn1						240		
FC(F)(F)c1cc(Br)cc(Nc2nnc(Cc3ccncc3)c3ccccc23)c1	6	120	600	> 10000	> 10000	380		39
Fc1cc(Nc2nnc(Cc3ccncc3)c3ccccc23)cc(C(F)(F)F)c1			350	> 10000	> 10000	200		40
Clc1ccc(Nc2nnc(Cc3ccccn3)c3ccccc23)cc1			> 10000			> 10000		
Cc1c(Cc2ccncc2)nnc(Nc2ccc(Cl)cc2)c1C			260					
Clc1ccc(Sc2nnc(Cc3ccncc3)c3ccccc23)cc1			70			1300		
Clc1ccc(Nc2nnc(Cc3ccncc3)c3cccnc23)cc1			1700					
Clc1ccc(Nc2nnc(Cc3cccnc3)c3ccccc23)cc1			9800			> 10000		
Nc1ccc2c(Cc3ccncc3)nnc(Nc3ccc(Cl)cc3)c2c1			650					
COc1cccc(Nc2nnc(Cc3ccncc3)c3ccccc23)c1	21	30		800	3000			
Cc1cc(Cc2nnc(Nc3ccc(Cl)cc3)c3ccccc23)cc(C)n1			> 10000			> 10000		
Cc1ccc2c(Cc3ccncc3)nnc(Nc3ccc(Cl)cc3)c2c1			3000			4700		
FC(F)(F)c1cc(Nc2nnc(Cc3ccncc3)c3ccccc23)ccc1Cl	7.6	120	600	4000	2700			
